This is an account of results in patent publication US20050113318A1, “Combination of dehydroepiandrosterone or dehydroepiandrosterone-sulfate with a beta-agonist bronchodilator for treatment of asthma or chronic obstructive pulmonary disease” (priority 2003, published 2005).

For data set [1], the system named is tissue adenosine. Put plainly: In vivo effect on adenosine levels in various rat tissues. Details: species or system Fischer 344 rats. How it is done: Folinic acid (50 mg/kg) was administered intraperitoneally once daily for fourteen days. […] Hearts were removed from animals and flash frozen in liquid nitrogen with 10 s of death. Liver and lungs were removed en bloc and flash frozen with 30 s of death. Brain tissue was subsequently dissected.

Data set [2] relates to HT-29 SF cells. Put plainly: Reversal of DHEA-mediated growth inhibition. The data set is classed as cell-based, human. The following applies: 25 μM DHEA, 48 hours; 2 μM MVA, 80 μM SQ, 15 μg/ml CH, RN 30 μM each, DN 20 μM each.
Data set [3] has as its system HT-29 SF cells. Put plainly: Reversal of DHEA effect on cell cycle. The data set is classed as cell-based, human. The conditions noted are these: 25 μM DHEA, 48 and 72 hours.
Data set [4] has as its system HT-29 SF cells. Put plainly: DHEA effect on cell growth (Coulter counter). The data set is classed as cell-based, human. The conditions noted are these: 12.5-200 μM, 24-72 hours, FIG. 14.
In data set [5] the test system is HT-29 SF cells. Put plainly: DHEA effect on cell cycle distribution (flow cytometry). The data set is classed as cell-based, human. As for the experimental part:
Cells were plated at 10^5/60-mm dish in duplicate. […] Cultures were trypsinized following […] and fixed and stained using a modification of a procedure of Bauer et al., Cancer Res. 46, 3173-3178 (1986). Briefly, cells were collected by centrifugation and resuspended in cold phosphate-buffered saline. Cells were fixed in 70% ethanol, washed, and resuspended in phosphate-buffered saline.
After 24, 48, and 72 hours, cells were harvested, fixed in ethanol, and stained with propidium iodide, and the DNA content/cell was determined by flow cytometric analysis. The percentage of cells in G1, S, and G2M phases was calculated using the Cellfit cell cycle analysis program. S phase is marked by a quadrangle for clarity. Representative histograms from duplicate determinations are shown. The experiment was repeated three times.
A general note: In flow cytometry, cells or beads pass a laser one at a time.

Data set [6] can be described thus: Particle size of DHEA-S powders (laser diffraction, light microscope). The class given is physicochemical. How it is done: Approximately 1 g sample was passed through the jet mill, once, and approximately 2 g sample were passed through the jet mill twice. […] The resulting solution was sonicated for 3 minutes and appeared fully dispersed. The dispersed solutions were tested on a Malvern Mastersizer X with a small volume sampler (SVS) attachment. One sample of dispersed material was tested 5 times. The median particle size or D (v, 0.5) of unmilled material was 52.56 μm and the % RSD (relative standard deviation) was 7.61 for the 5 values. The D (v, 0.5) for a single pass through the jet mill was 3.90 μm and the % RSD was 1.27, and the D (v, 0.5) from a double pass through the jet mill 3.25 μm and the % RSD was 3.10.
The solution was spray-dried with a B-191 Mini Spray-Drier (Buchi, Flawil, Switzerland) with an inlet temperature of 55° C., outlet temperature of 40° C., at 100% aspirator, at 10% pump, nitrogen flow at 40 mbar and spray flow at 600 units. The spray-dried product was suspended in hexane and Span85 surfactant added to reduce agglomeration. The dispersions were sonicated with cooling for 3-5 minutes for complete dispersion and the dispersed solutions tested on a Malvern Mastersizer X with a Small Volume Sampler (SVS) attachment. […] Visual examination by light microscope of the dispersions of each batch confirmed that spray drying produced small respirable size particles. The mean particle size was 2.4 μm and 2.0 μm for each batch, respectively.
(§1) Surface area is determined using five point BET analyses are performed with nitrogen as the adsorbing gas (P/Po=0.05 to 0.30) using a Micromeritics TriStar surface area analyzer. Particle size distributions are measured by laser diffraction using a Micromeritics Saturn Digisizer where the particles are suspended in mineral oil th sodium dioctyl sodium sulfosuccinate as a dispersing agent. Drug substance water content is measured by Karl Fischer titration (Schott Titroline KF). Pure water is used as the standard and all relative standard deviations for triplicates are less than 1%. Powder is added directly to the titration media.

Data set [7] in a line: Physicochemical testing of DHEA-S dihydrate (BET surface area, Karl Fischer water, impurities). How it is done:
as §1

The nature of data set [8]: Fine particle fraction, single-dose Acu-Breathe inhaler into Andersen impactor. The data set is classed as physicochemical. The conditions noted are these: neat micronized powder, 30 to 75 L/min, FIG. 1. As for the experimental part:
These blisters are actuated into the Andersen 8-stage cascade impactor at flow rates ranging from 30 to 75 L/min with a glass twin-impinger throat. Stages 1-5 of the Andersen impactor are rinsed together to obtain an estimate of the fine particle fraction. Pooling the drug collected from multiple stages into one assay make the method much more sensitive. […] Using a carrier with a larger particle size typically improves the aerosol properties of micronized drug substances.
Approximately 25 mg of this powder is filled and sealed in foil blisters and aerosolized using the single-dose device at 60 L/min. The aerosol results for this preliminary powder blend are satisfactory for a respiratory drug delivery system. […] This diameter is smaller than the median diameter measured for micronized DHEA-S.dihydrate by laser diffraction. Irregularly shaped particles can behave aerodynamically as smaller particles since their longest dimension tends to align with the air flow field. Therefore, it is common to see a difference between the two methods. Diffraction measurements are a quality control test for the input material while cascade impaction is a quality control test for the finished product.

A short description of data set [9]: Solid-state stability with and without lactose (DHEA formed, HPLC). The data set is classed as physicochemical. An excerpt: These conditions were used to stress the formulation in order to predict its long-term stability results. […] This color change is accompanied by a significant change in the chromatogram as shown in. FIG. 1. The primary degradant is DHEA. […] The materials on accelerated storage become more cohesive with time as evidenced by clumping during sample weighing for chemical analysis. […] This is a considerable disadvantage since lactose is the most commonly used inhalation excipient for dry powder formulations. Continuing with the virtually anhydrous form would mean limiting formulations to neat powder or undertaking more comprehensive safety studies to use a novel excipient.

Data set [10] can be described thus: Solubility of DHEA-S dihydrate and nebulizer solution properties. The conditions noted are these: for solubility: range of triplicates. The class given is physicochemical. The source says:
Inhalation of pure water can produce a cough stimulus. […] The temperature effect is weaker at high NaCl concentrations.

The nature of data set [11]: Short-term solution stability of DHEA-S in 0.12% NaCl. The class given is physicochemical. The following applies: for appearance / decomposition on storage: 10 mg/mL in 0.12% NaCl. As for the experimental part: Aliquots of this solution are filled into clear glass vials and stored at RT (24-26° C.) and at 40° C. The samples are checked daily for DHEA-S content, DHEA content, and appearance. For each time point, duplicate samples are withdrawn and diluted from each vial. […] The study is stopped on day three. […] The solution should easily be stable for the day of reconstitution in a clinical trial. The following section describes the aerosol properties of this formulation.

Data set [12] relates to rat peritoneal mast cells. Put plainly: Compound 48/80-induced histamine release from rat peritoneal mast cells. The data set is classed as cell-based. As for the experimental part:
Following incubation, the mixture is cooled to 4° C. then centrifuged at 4500 rpm for 5 min. The supernatant is collected and mixed for 30 min at 4° C. with 5% TCA (trichloroacetic acid) to cause protein precipitation. After centrifugation at 9500×g for 15 min, the supernatant is collected and mixed with 0.25 M HCl. Thereafter, the samples are mixed with 2M NaOH and 0.2% OPT (ortho-phtalaldehyde).and incubated for 30 min at 4° C. in darkness, after which time the reaction is stopped by addition of 0.5 M H2SO4.
The amount of secreted histamine is quantified by measuring the fluorescence intensity at λex=360 nm and λem=450 nm using a spectrofluorimeter (GeminiXS, Molecular Devices). The results are expressed as a percent inhibition of control histamine secretion.

Where [13] appears, read: rat, daily for two weeks, DHEA, high dose methyltestosterone.

Broadly, the solubility is the concentration that dissolves in the medium under given conditions. Read a high solubility as much dissolved substance. The term inhibition denotes the change of the read-out against control, counted positive when it falls.

`Nc1nc(=O)c2c([nH]1)NCC(CNc1ccc(C(=O)N[C@@H](CCC(=O)O)C(=O)O)cc1)N2C=O` (mixture of isomers) [Folinic Acid]: in data set [1] (rat brain, once daily 14 days, DHEA 300 mg/kg, methyltestosterone 40 mg/kg by gavage, folinic acid 50 mg/kg i.p., mean ± SEM), the “Intracellular adenosine, Brain” value was found to be 0.72 ± 0.09 nmols/mg protein. For the same compound, the “Intracellular adenosine, Heart” value in [1] (rat heart, once daily 14 days, DHEA 300 mg/kg, methyltestosterone 40 mg/kg by gavage, folinic acid 50 mg/kg i.p., mean ± SEM) is 12.4 ± 2.1 nmols/mg protein. The “Intracellular adenosine, Liver” value in data set [1] (rat liver, once daily 14 days, DHEA 300 mg/kg, methyltestosterone 40 mg/kg by gavage, folinic acid 50 mg/kg i.p., mean ± SEM) was found to be 16.4 ± 2.4 nmols/mg protein. In data set [1] (rat, 50 mg/kg i.p. 14 days), the “adenosine levels, folinic acid administered alone” value is given as “increase in adenosine levels for all organs studied”. Moreover, the “effect of coadministration of folinic acid on steroid-mediated adenosine depletion” value in data set [1] (rat, with DHEA or methyltestosterone) was “completely abrogated”.
With `CC(C)CCC[C@@H](C)[C@H]1CC[C@H]2[C@@H]3CC=C4C[C@@H](O)CC[C@]4(C)[C@H]3CC[C@]12C` [CH, cholesterol], the “reversal of DHEA-induced growth inhibition by supplement” value in [2] is “no such effect”. Also, the “prevention of DHEA-induced S phase depletion by supplement” value in data set [3] was “very little effect at 48 hours and no effect at 72 hours”.
Turning to `C[C@]12CC[C@H](O)CC1=CC[C@@H]1[C@@H]2CC[C@]2(C)C(=O)CC[C@@H]12` [DHEA, 3β-hydroxyandrost-5-en-17-one], the inhibition of growth entry in [4] was “time- and dose-dependent inhibition of growth”. The cell cycle distribution result in [5] (200 μM DHEA, 24 hours) was “increase in the percentage of cells in G1 and a decreased proportion of cells in S phase”; in data set [5] (25 or 50 μM DHEA, 72 hours) it was “percentage of cells in G1 phase was increased”; in [5] (25 or 50 μM DHEA, initial 24 hours), “unchanged”. Also, the cell cycle block result in [5] (25-200 μM, 24-72 hours, FIG. 15) is reported as “G1 block”.
For `CC12CCC3C(CC=C4CC(OS(=O)(=O)[O-])CCC43C)C1CCC2=O.[Na+]` (centres unmarked) [DHEA-S dihydrate], the “Particle size (D50%)” value in data set [6] (Bulk, before micronization) came out at 31 microns; in data set [6] (Micronized), 3.7 microns. The Impurities entry in data set [7] (Bulk) and in data set [7] (Micronized) was “No significant peaks” in each case. Further, the Water in data set [7] (Bulk) is reported as 8.5 % w/w; in data set [7] (Micronized), 8.4 % w/w. The compound also gave a Surface area in data set [7] (Micronized) of 4.9 m^2/g. Further, in [8], the “fine particle fraction as a function of flow rate” value is recorded as “higher fine particle fraction than the virtually anhydrous material”. For the same compound, the DHEA % formed was 0.216% in data set [9] (50° C., 1 week); 0.317% in data set [9] (50° C., 3 weeks); 0.374% in data set [9] (50° C., 4 weeks); 0.218% in data set [9] (Control: neat, sealed vial, 25° C., 4 weeks); 0.213% in data set [9] (Control: neat, sealed vial, 25° C., first time column (head empty, time 0)). In data set [9] (before storage), the “water content, starting value” turned out to be 8.8%. Moreover, the “water content after accelerated storage” value in data set [9] (one week at 50° C.) turned out to be 8.66%.
As for `C[C@]12CC[C@H](OS(=O)(=O)[O-])CC1=CC[C@@H]1[C@@H]2CC[C@]2(C)C(=O)CC[C@@H]12.[Na+]` [DHEA-S, sodium dehydroepiandrostenone sulfate], the solubility in hexane result in data set [10] is “insoluble”. In addition, the solubility was 1100 to 1300 µg/mL in data set [10] (0.9% NaCl, refrigerated (7-8° C.)) and 16500 to 17400 µg/mL in data set [10] (~25° C., 0% NaCl, excess DHEA-S dihydrate). The Ksp in [10] (15° C., interpolated) is given as ~1316 mM^2. In addition, the “equilibrium constant Ksp” value in data set [10] (refrigerated (7-8° C.)) is reported as 665 mM^2; in [10] (room temperature (24-25° C.)), 2236 mM^2. Further, the “solution stability of nebulizer formulation” value in data set [11] (7.5 mg/mL in 0.12% NaCl, RT) is “stable for at least one day at RT”. Moreover, the “appearance / decomposition on storage” value in [11] (40° C.) is on record as “became cloudy after two days of storage”; in data set [11] (RT (24-26° C.)), “slight precipitate is observed on the third day”.
As to `C[C@@](O)(CCO)CC(=O)O` [MVA, mevalonic acid], the “reversal of DHEA-induced growth inhibition by supplement” value in data set [2] is given as “partially overcome”. Moreover, in data set [3], the “prevention of DHEA-induced S phase depletion by supplement” value is listed as “partially prevented this effect in the initial 48 hours but not after 72 hours”.
Consider `C[C@]12CCC(=O)C=C1CC[C@@H]1[C@@H]2CC[C@@]2(C)[C@H]1CC[C@]2(C)O` [Methyltestosterone], for which the “Intracellular adenosine, Liver” value in data set [1] (rat liver, methyltestosterone 120 mg/kg, mean ± SEM) is on record as 5.1 ± 0.5 nmols/mg protein; in [1] (rat, in vivo), 16.5 ± 0.9 nmols/mg protein. Besides, the “depletion of adenosine in brain” value in [1] (setting [13]) worked out at 34%. Besides, the “depletion of adenosine in heart” value in data set [1] (setting [13]) came to 22%.
`CC(C)=CCC/C(C)=C/CC/C(C)=C/CC/C=C(\C)CC/C=C(\C)CCC=C(C)C` [SQ, squalene]: the “reversal of DHEA-induced growth inhibition by supplement” value in data set [2] is given as “no such effect”.
As to `CC(C)(C)NCC(O)c1ccc(O)c(CO)c1` (stereo not drawn) [Salbutamol, (α1-tert-butylaminomothyl)-4-hydroxy-m-xylene-α1,α3-diol], in data set [12] (Rattus norvegicus, Mast cell), the inhibition at 1 pM is -1%, the inhibition at 10 pM turned out to be 7% and the inhibition at 0.0001 µM was 2%. In addition, the “inhibition of compound 48/80-induced histamine release” value in data set [12] (Salbutamol 1, 10 and 100 pM alone) is listed as “no or trivial inhibition”.
